Values quoted from earlier work as cited in article PMC12181400, “Leveraging viral genome sequences and machine learning models for identification of potentially selective antiviral agents” (Communications Chemistry, 2025).
Counter-ions that a name gives are not always drawn. Like-named read-outs stand apart in the source and are kept apart here. Peptide text beside a SMILES is read from it.

Experiments:
Conditions in all cases: cited from earlier work
[1] = tested on: cell viability (tox21-ar-mda-kb2-luc-agonist-p3)
[2] = tested on: cell viability (tox21-car-antagonist-p1)
[3] = tested on: cell viability (tox21-ap1-agonist-p1)
[4] = tested on: cell viability (tox21-ar-mda-kb2-luc-antagonist-p2)
[5] = tested on: cell viability (tox21-car-agonist-p1)
[6] = tested on: cell viability (tox21-are-bla-p1)
[7] = curve rank −9 to 9, 0 = inactive, ref NCATS Tox21 public data browser

FC(F)(F)c1ccccc1-n1ccnc1 [1-[2-(Trifluoromethyl)phenyl]-1H-imidazole]
0: tox21-ar-mda-kb2-luc-agonist-p3-viability (curve rank) [1, 7] | tox21-car-antagonist-p1-viability (curve rank) [2, 7] | tox21-ap1-agonist-p1-viability (curve rank) [3, 7] | tox21-ar-mda-kb2-luc-antagonist-p2-viability (curve rank) [4, 7] | tox21-car-agonist-p1-viability (curve rank) [5, 7] | tox21-are-bla-p1-viability (curve rank) [6, 7]

CCCCCC(C)N.O=S(=O)(O)O (centres unmarked) [2-Aminoheptane sulfate]
0: tox21-ar-mda-kb2-luc-agonist-p3-viability (curve rank) [1, 7] | tox21-car-antagonist-p1-viability (curve rank) [2, 7] | tox21-ap1-agonist-p1-viability (curve rank) [3, 7] | tox21-ar-mda-kb2-luc-antagonist-p2-viability (curve rank) [4, 7] | tox21-car-agonist-p1-viability (curve rank) [5, 7] | tox21-are-bla-p1-viability (curve rank) [6, 7]

NC(=O)c1ccc([N+](=O)[O-])cc1Cl [2-Chloro-4-nitrobenzamide]
0: tox21-ar-mda-kb2-luc-agonist-p3-viability (curve rank) [1, 7] | tox21-car-antagonist-p1-viability (curve rank) [2, 7] | tox21-ap1-agonist-p1-viability (curve rank) [3, 7] | tox21-ar-mda-kb2-luc-antagonist-p2-viability (curve rank) [4, 7] | tox21-car-agonist-p1-viability (curve rank) [5, 7] | tox21-are-bla-p1-viability (curve rank) [6, 7]

Cc1cccc(C(=O)O)c1O [2-Hydroxy-3-methylbenzoic acid]
0: tox21-ar-mda-kb2-luc-agonist-p3-viability (curve rank) [1] | tox21-car-antagonist-p1-viability (curve rank) [2] | tox21-ap1-agonist-p1-viability (curve rank) [3] | tox21-ar-mda-kb2-luc-antagonist-p2-viability (curve rank) [4] | tox21-car-agonist-p1-viability (curve rank) [5] | tox21-are-bla-p1-viability (curve rank) [6]

Nc1ccc(C(=O)O)cc1 [4-Aminobenzoic acid]
0: tox21-ar-mda-kb2-luc-agonist-p3-viability (curve rank) [1] | tox21-car-antagonist-p1-viability (curve rank) [2] | tox21-ap1-agonist-p1-viability (curve rank) [3] | tox21-ar-mda-kb2-luc-antagonist-p2-viability (curve rank) [4] | tox21-car-agonist-p1-viability (curve rank) [5] | tox21-are-bla-p1-viability (curve rank) [6]

Cc1cc(O)ccc1Cl [4-Chloro-3-methylphenol]
0: tox21-ar-mda-kb2-luc-agonist-p3-viability (curve rank) [1, 7] | tox21-car-antagonist-p1-viability (curve rank) [2, 7] | tox21-ap1-agonist-p1-viability (curve rank) [3, 7] | tox21-ar-mda-kb2-luc-antagonist-p2-viability (curve rank) [4, 7] | tox21-car-agonist-p1-viability (curve rank) [5, 7] | tox21-are-bla-p1-viability (curve rank) [6, 7]

Oc1ccc(Cl)cc1 [4-Chlorophenol]
0: tox21-ar-mda-kb2-luc-agonist-p3-viability (curve rank) [1, 7] | tox21-car-antagonist-p1-viability (curve rank) [2, 7] | tox21-ap1-agonist-p1-viability (curve rank) [3, 7] | tox21-ar-mda-kb2-luc-antagonist-p2-viability (curve rank) [4, 7] | tox21-car-agonist-p1-viability (curve rank) [5, 7] | tox21-are-bla-p1-viability (curve rank) [6, 7]

CCN(CC)CC1CCCCN1CC(=O)N1c2ccccc2C(=O)Nc2cccnc21 (centres unmarked) [AF-DX 116]
0: tox21-ar-mda-kb2-luc-agonist-p3-viability (curve rank) [1] | tox21-car-antagonist-p1-viability (curve rank) [2] | tox21-ap1-agonist-p1-viability (curve rank) [3] | tox21-ar-mda-kb2-luc-antagonist-p2-viability (curve rank) [4] | tox21-car-agonist-p1-viability (curve rank) [5] | tox21-are-bla-p1-viability (curve rank) [6]

CCCC(=O)Nc1ccc(OCC(O)CNC(C)C)c(C(C)=O)c1 (centres unmarked) [Acebutolol hydrochloride]
0: tox21-ar-mda-kb2-luc-agonist-p3-viability (curve rank) [1] | tox21-car-antagonist-p1-viability (curve rank) [2] | tox21-ap1-agonist-p1-viability (curve rank) [3] | tox21-ar-mda-kb2-luc-antagonist-p2-viability (curve rank) [4] | tox21-car-agonist-p1-viability (curve rank) [5] | tox21-are-bla-p1-viability (curve rank) [6]

CC(=O)Nc1ccccc1 [Acetanilide]
0: tox21-ar-mda-kb2-luc-agonist-p3-viability (curve rank) [1] | tox21-car-antagonist-p1-viability (curve rank) [2] | tox21-ap1-agonist-p1-viability (curve rank) [3] | tox21-ar-mda-kb2-luc-antagonist-p2-viability (curve rank) [4] | tox21-car-agonist-p1-viability (curve rank) [5] | tox21-are-bla-p1-viability (curve rank) [6]

CC(=O)Nc1cc([As](=O)(O)O)ccc1O [Acetarsol]
0: tox21-ar-mda-kb2-luc-agonist-p3-viability (curve rank) [1, 7] | tox21-car-antagonist-p1-viability (curve rank) [2, 7] | tox21-ap1-agonist-p1-viability (curve rank) [3, 7] | tox21-ar-mda-kb2-luc-antagonist-p2-viability (curve rank) [4, 7] | tox21-car-agonist-p1-viability (curve rank) [5, 7] | tox21-are-bla-p1-viability (curve rank) [6, 7]

CC(=O)Nc1nnc(S(N)(=O)=O)s1 [Acetazolamide]
0: tox21-ar-mda-kb2-luc-agonist-p3-viability (curve rank) [1] | tox21-car-antagonist-p1-viability (curve rank) [2] | tox21-ap1-agonist-p1-viability (curve rank) [3] | tox21-ar-mda-kb2-luc-antagonist-p2-viability (curve rank) [4] | tox21-car-agonist-p1-viability (curve rank) [5] | tox21-are-bla-p1-viability (curve rank) [6]

CC(=O)N[C@@H](CC(C)C)C(=O)O [Acetyl-L-leucine]
0: tox21-ar-mda-kb2-luc-agonist-p3-viability (curve rank) [1] | tox21-car-antagonist-p1-viability (curve rank) [2] | tox21-ap1-agonist-p1-viability (curve rank) [3] | tox21-ar-mda-kb2-luc-antagonist-p2-viability (curve rank) [4] | tox21-car-agonist-p1-viability (curve rank) [5] | tox21-are-bla-p1-viability (curve rank) [6]

CC(=O)NCCCCCC(=O)O [Acexamic acid]
0: tox21-ar-mda-kb2-luc-agonist-p3-viability (curve rank) [1, 7] | tox21-car-antagonist-p1-viability (curve rank) [2, 7] | tox21-ap1-agonist-p1-viability (curve rank) [3, 7] | tox21-ar-mda-kb2-luc-antagonist-p2-viability (curve rank) [4, 7] | tox21-car-agonist-p1-viability (curve rank) [5, 7] | tox21-are-bla-p1-viability (curve rank) [6, 7]

CCN(CC)CCOC(=O)C(c1ccccc1)c1ccccc1 [Adiphenine hydrochloride]
0: tox21-ar-mda-kb2-luc-agonist-p3-viability (curve rank) [1] | tox21-car-antagonist-p1-viability (curve rank) [2] | tox21-ap1-agonist-p1-viability (curve rank) [3] | tox21-ar-mda-kb2-luc-antagonist-p2-viability (curve rank) [4] | tox21-car-agonist-p1-viability (curve rank) [5] | tox21-are-bla-p1-viability (curve rank) [6]

C=CCNC(N)=S [Allylthiourea]
0: tox21-ar-mda-kb2-luc-agonist-p3-viability (curve rank) [1, 7] | tox21-car-antagonist-p1-viability (curve rank) [2, 7] | tox21-ap1-agonist-p1-viability (curve rank) [3, 7] | tox21-ar-mda-kb2-luc-antagonist-p2-viability (curve rank) [4, 7] | tox21-car-agonist-p1-viability (curve rank) [5, 7] | tox21-are-bla-p1-viability (curve rank) [6, 7]

CCC(C)(CN(C)C)OC(=O)c1ccccc1.Cl (centres unmarked) [Amylocaine hydrochloride]
0: tox21-car-antagonist-p1-viability (curve rank) [2, 7]

Nc1ccccc1C(=O)O [Anthranilic acid]
0: tox21-ar-mda-kb2-luc-agonist-p3-viability (curve rank) [1, 7] | tox21-car-antagonist-p1-viability (curve rank) [2, 7] | tox21-ap1-agonist-p1-viability (curve rank) [3, 7] | tox21-ar-mda-kb2-luc-antagonist-p2-viability (curve rank) [4, 7] | tox21-car-agonist-p1-viability (curve rank) [5, 7] | tox21-are-bla-p1-viability (curve rank) [6, 7]

OC[C@H]1O[C@@H](Oc2ccc(O)cc2)[C@H](O)[C@@H](O)[C@@H]1O [Arbutin]
0: tox21-ar-mda-kb2-luc-agonist-p3-viability (curve rank) [1, 7] | tox21-car-antagonist-p1-viability (curve rank) [2, 7] | tox21-ap1-agonist-p1-viability (curve rank) [3, 7] | tox21-ar-mda-kb2-luc-antagonist-p2-viability (curve rank) [4, 7] | tox21-car-agonist-p1-viability (curve rank) [5, 7] | tox21-are-bla-p1-viability (curve rank) [6, 7]

COC(=O)[C@H](Cc1ccccc1)NC(=O)[C@@H](N)CC(=O)O [Aspartame] (H-Asp-Phe-OMe)
0: tox21-ar-mda-kb2-luc-agonist-p3-viability (curve rank) [1, 7] | tox21-car-antagonist-p1-viability (curve rank) [2, 7] | tox21-ap1-agonist-p1-viability (curve rank) [3, 7] | tox21-ar-mda-kb2-luc-antagonist-p2-viability (curve rank) [4, 7] | tox21-car-agonist-p1-viability (curve rank) [5, 7] | tox21-are-bla-p1-viability (curve rank) [6, 7]

OC(c1ccccc1)(c1ccccc1)C1CCNCC1 [Azacyclonol]
0: tox21-ar-mda-kb2-luc-agonist-p3-viability (curve rank) [1, 7] | tox21-car-antagonist-p1-viability (curve rank) [2, 7] | tox21-ap1-agonist-p1-viability (curve rank) [3, 7] | tox21-ar-mda-kb2-luc-antagonist-p2-viability (curve rank) [4, 7] | tox21-car-agonist-p1-viability (curve rank) [5, 7] | tox21-are-bla-p1-viability (curve rank) [6, 7]

NS(=O)(=O)c1cc2c(cc1C(F)(F)F)NC(Cc1ccccc1)NS2(=O)=O (centres unmarked) [Bendroflumethiazide]
0: tox21-ar-mda-kb2-luc-agonist-p3-viability (curve rank) [1] | tox21-car-antagonist-p1-viability (curve rank) [2] | tox21-ap1-agonist-p1-viability (curve rank) [3] | tox21-ar-mda-kb2-luc-antagonist-p2-viability (curve rank) [4] | tox21-car-agonist-p1-viability (curve rank) [5] | tox21-are-bla-p1-viability (curve rank) [6]

C/C(=C(\CCOP(=O)(O)O)SC(=O)c1ccccc1)N(C=O)Cc1cnc(C)nc1N [Benfotiamine]
0: tox21-ar-mda-kb2-luc-agonist-p3-viability (curve rank) [1] | tox21-car-antagonist-p1-viability (curve rank) [2] | tox21-ap1-agonist-p1-viability (curve rank) [3] | tox21-ar-mda-kb2-luc-antagonist-p2-viability (curve rank) [4] | tox21-car-agonist-p1-viability (curve rank) [5] | tox21-are-bla-p1-viability (curve rank) [6]

CC1(C)S[C@@H]2[C@H](NC(=O)Cc3ccccc3)C(=O)N2[C@H]1C(=O)O.CC1(C)S[C@@H]2[C@H](NC(=O)Cc3ccccc3)C(=O)N2[C@H]1C(=O)O.c1ccc(CNCCNCc2ccccc2)cc1 [Benzathine penicillin G]
0: tox21-ar-mda-kb2-luc-agonist-p3-viability (curve rank) [1, 7] | tox21-car-antagonist-p1-viability (curve rank) [2, 7] | tox21-ap1-agonist-p1-viability (curve rank) [3, 7] | tox21-ar-mda-kb2-luc-antagonist-p2-viability (curve rank) [4, 7] | tox21-car-agonist-p1-viability (curve rank) [5, 7] | tox21-are-bla-p1-viability (curve rank) [6, 7]

NS(=O)(=O)c1cc2c(cc1Cl)N=C(CSCc1ccccc1)NS2(=O)=O [Benzthiazide]
0: tox21-ar-mda-kb2-luc-agonist-p3-viability (curve rank) [1] | tox21-car-antagonist-p1-viability (curve rank) [2] | tox21-ap1-agonist-p1-viability (curve rank) [3] | tox21-ar-mda-kb2-luc-antagonist-p2-viability (curve rank) [4] | tox21-car-agonist-p1-viability (curve rank) [5] | tox21-are-bla-p1-viability (curve rank) [6]

CC(C)NCC(O)COc1ccc(COCCOC(C)C)cc1 (centres unmarked) [Bisoprolol fumarate]
0: tox21-ar-mda-kb2-luc-agonist-p3-viability (curve rank) [1] | tox21-car-antagonist-p1-viability (curve rank) [2] | tox21-ap1-agonist-p1-viability (curve rank) [3] | tox21-ar-mda-kb2-luc-antagonist-p2-viability (curve rank) [4] | tox21-car-agonist-p1-viability (curve rank) [5] | tox21-are-bla-p1-viability (curve rank) [6]

Brc1c(NC2=NCCN2)ccc2nccnc12 [Brimonidine]
0: tox21-ar-mda-kb2-luc-agonist-p3-viability (curve rank) [1] | tox21-car-antagonist-p1-viability (curve rank) [2] | tox21-ap1-agonist-p1-viability (curve rank) [3] | tox21-ar-mda-kb2-luc-antagonist-p2-viability (curve rank) [4] | tox21-car-agonist-p1-viability (curve rank) [5] | tox21-are-bla-p1-viability (curve rank) [6]

CCN[C@H]1CN(CCCOC)S(=O)(=O)c2sc(S(N)(=O)=O)cc21 [Brinzolamide]
0: tox21-ar-mda-kb2-luc-agonist-p3-viability (curve rank) [1] | tox21-car-antagonist-p1-viability (curve rank) [2] | tox21-ap1-agonist-p1-viability (curve rank) [3] | tox21-ar-mda-kb2-luc-antagonist-p2-viability (curve rank) [4] | tox21-car-agonist-p1-viability (curve rank) [5] | tox21-are-bla-p1-viability (curve rank) [6]

CCN(Cc1ccncc1)C(=O)C(CO)c1ccccc1 (centres unmarked) [Tropicamide]
0: tox21-car-antagonist-p1-viability (curve rank) [2, 7] | tox21-ap1-agonist-p1-viability (curve rank) [3, 7] | tox21-car-agonist-p1-viability (curve rank) [5, 7] | tox21-are-bla-p1-viability (curve rank) [6, 7]
